Data taken from the supplement of paper PMC10307832.

Legend:
Assay in all cases: relative viability (nuclei count vs DMSO), 5 days (fraction); higher = more cells survive
Avagacestat = compound: NC(=O)[C@@H](CCC(F)(F)F)N(Cc1ccc(-c2ncon2)cc1F)S(=O)(=O)c1ccc(Cl)cc1 [Avagacestat]
Method in brief: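 Following overnight incubation at 37 °C, lung cancer cell lines in 1536-well plates were pinned with five library-drug doses (not always all listed) in √10 steps on vehicle-anchored plates. The cells then spent 5 days without medium change before a combined fix, permeabilisation and Hoechst stain, 4× imaging and MetaXpress nuclear counts. Viability is the treated-to-vehicle ratio of nuclei, taken as the median across plates. Only plates with control CV below 25% and at least one doubling passed.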

Avagacestat + Bortezomib = compound: NC(=O)[C@@H](CCC(F)(F)F)N(Cc1ccc(-c2ncon2)cc1F)S(=O)(=O)c1ccc(Cl)cc1 [Avagacestat] + CC(C)C[C@H](NC(=O)[C@H](Cc1ccccc1)NC(=O)c1cnccn1)B(O)O [Bortezomib] (partner 0.002 µM)
Method in brief: (§1)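 Nuclei were stained with Hoechst during a one-step fixation (final 0.05% Triton X-100, 1% formaldehyde, 1 ug/ml Hoechst) carried out 5 days after dosing, then counted on 4× images. The cells, lung cancer lines in 1536-well plates, had been dosed by pin tool the day after seeding with one drug alone or a fixed anchor-drug dose plus five library-drug doses (not always all listed) in √10 steps. Relative viability is the nuclei count in treated wells divided by that in vehicle wells, and each value is the median of duplicate plates.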

Avagacestat + Navitoclax = compound: NC(=O)[C@@H](CCC(F)(F)F)N(Cc1ccc(-c2ncon2)cc1F)S(=O)(=O)c1ccc(Cl)cc1 [Avagacestat] + CC1(C)CCC(c2ccc(Cl)cc2)=C(CN2CCN(c3ccc(C(=O)NS(=O)(=O)c4ccc(N[C@H](CCN5CCOCC5)CSc5ccccc5)c(S(=O)(=O)C(F)(F)F)c4)cc3)CC2)C1 [Navitoclax] (partner 0.5 µM)
Method in brief: as §1

Avagacestat + Foretinib = compound: NC(=O)[C@@H](CCC(F)(F)F)N(Cc1ccc(-c2ncon2)cc1F)S(=O)(=O)c1ccc(Cl)cc1 [Avagacestat] + COc1cc2c(Oc3ccc(NC(=O)C4(C(=O)Nc5ccc(F)cc5)CC4)cc3F)ccnc2cc1OCCCN1CCOCC1 [Foretinib] (partner 0.25 µM)
Method in brief: as §1

Avagacestat + Lapatinib = compound: NC(=O)[C@@H](CCC(F)(F)F)N(Cc1ccc(-c2ncon2)cc1F)S(=O)(=O)c1ccc(Cl)cc1 [Avagacestat] + CS(=O)(=O)CCNCc1ccc(-c2ccc3ncnc(Nc4ccc(OCc5cccc(F)c5)c(Cl)c4)c3c2)o1 [Lapatinib] (partner 2 µM)
Method in brief: as §1

Avagacestat + Pictilisib = compound: NC(=O)[C@@H](CCC(F)(F)F)N(Cc1ccc(-c2ncon2)cc1F)S(=O)(=O)c1ccc(Cl)cc1 [Avagacestat] + CS(=O)(=O)N1CCN(Cc2cc3nc(-c4cccc5[nH]ncc45)nc(N4CCOCC4)c3s2)CC1 [Pictilisib] (partner 1 µM)
Method in brief: as §1

Avagacestat + Crizotinib = compound: NC(=O)[C@@H](CCC(F)(F)F)N(Cc1ccc(-c2ncon2)cc1F)S(=O)(=O)c1ccc(Cl)cc1 [Avagacestat] + C[C@@H](Oc1cc(-c2cnn(C3CCNCC3)c2)cnc1N)c1c(Cl)ccc(F)c1Cl [Crizotinib] (partner 1 µM)
Method in brief: as §1

Avagacestat + Linsitinib = compound: NC(=O)[C@@H](CCC(F)(F)F)N(Cc1ccc(-c2ncon2)cc1F)S(=O)(=O)c1ccc(Cl)cc1 [Avagacestat] + C[C@]1(O)C[C@@H](c2nc(-c3ccc4ccc(-c5ccccc5)nc4c3)c3c(N)nccn32)C1 [Linsitinib] (partner 1 µM)
Method in brief: as §1

Avagacestat + Alpelisib = compound: NC(=O)[C@@H](CCC(F)(F)F)N(Cc1ccc(-c2ncon2)cc1F)S(=O)(=O)c1ccc(Cl)cc1 [Avagacestat] + Cc1nc(NC(=O)N2CCC[C@H]2C(N)=O)sc1-c1ccnc(C(C)(C)C(F)(F)F)c1 [Alpelisib] (partner 2 µM)
Method in brief: as §1

Avagacestat + Olaparib = compound: NC(=O)[C@@H](CCC(F)(F)F)N(Cc1ccc(-c2ncon2)cc1F)S(=O)(=O)c1ccc(Cl)cc1 [Avagacestat] + O=C(c1cc(Cc2n[nH]c(=O)c3ccccc23)ccc1F)N1CCN(C(=O)C2CC2)CC1 [Olaparib] (partner 8 µM)
Method in brief: as §1

Avagacestat + Luminespib = compound: NC(=O)[C@@H](CCC(F)(F)F)N(Cc1ccc(-c2ncon2)cc1F)S(=O)(=O)c1ccc(Cl)cc1 [Avagacestat] + CCNC(=O)c1noc(-c2cc(C(C)C)c(O)cc2O)c1-c1ccc(CN2CCOCC2)cc1 [Luminespib] (partner 0.01 µM)
Method in brief: as §1

Avagacestat + OSI-027 = compound: NC(=O)[C@@H](CCC(F)(F)F)N(Cc1ccc(-c2ncon2)cc1F)S(=O)(=O)c1ccc(Cl)cc1 [Avagacestat] + COc1cccc2cc(-c3nc([C@H]4CC[C@H](C(=O)O)CC4)n4ncnc(N)c34)[nH]c12 [OSI-027] (partner 0.5 µM)
Method in brief: as §1

Avagacestat + Tozasertib = compound: NC(=O)[C@@H](CCC(F)(F)F)N(Cc1ccc(-c2ncon2)cc1F)S(=O)(=O)c1ccc(Cl)cc1 [Avagacestat] + Cc1cc(Nc2cc(N3CCN(C)CC3)nc(Sc3ccc(NC(=O)C4CC4)cc3)n2)n[nH]1 [Tozasertib] (partner 0.1 µM)
Method in brief: as §1

Avagacestat + Dasatinib = compound: NC(=O)[C@@H](CCC(F)(F)F)N(Cc1ccc(-c2ncon2)cc1F)S(=O)(=O)c1ccc(Cl)cc1 [Avagacestat] + Cc1nc(Nc2ncc(C(=O)Nc3c(C)cccc3Cl)s2)cc(N2CCN(CCO)CC2)n1 [Dasatinib] (partner 0.075 µM)
Method in brief: as §1

Avagacestat + Phenformin = compound: NC(=O)[C@@H](CCC(F)(F)F)N(Cc1ccc(-c2ncon2)cc1F)S(=O)(=O)c1ccc(Cl)cc1 [Avagacestat] + N=C(N)NC(=N)NCCc1ccccc1 [Phenformin] (partner 250 µM)
Method in brief: as §1

## Calu-6
Avagacestat; 0.08 µM
  relative viability: 1.15
Avagacestat; 0.253 µM
  relative viability: 1.22
Avagacestat; 0.8 µM
  relative viability: 1.13
Avagacestat; 2.53 µM
  relative viability: 1.07
Avagacestat; 8 µM
  relative viability: 1.04
Avagacestat + Bortezomib; first compound 0.08 µM
  relative viability: 1.27
Avagacestat + Bortezomib; first compound 0.253 µM
  relative viability: 1.09
Avagacestat + Bortezomib; first compound 0.8 µM
  relative viability: 1.08
Avagacestat + Bortezomib; first compound 2.53 µM
  relative viability: 1.17
Avagacestat + Bortezomib; first compound 8 µM
  relative viability: 0.975
Avagacestat + Navitoclax; first compound 0.08 µM
  relative viability: 1.07
Avagacestat + Navitoclax; first compound 0.253 µM
  relative viability: 0.99
Avagacestat + Navitoclax; first compound 0.8 µM
  relative viability: 0.922
Avagacestat + Navitoclax; first compound 2.53 µM
  relative viability: 1.06
Avagacestat + Navitoclax; first compound 8 µM
  relative viability: 0.81
Avagacestat + Foretinib; first compound 0.08 µM
  relative viability: 1.12
Avagacestat + Foretinib; first compound 0.253 µM
  relative viability: 0.949
Avagacestat + Foretinib; first compound 0.8 µM
  relative viability: 0.979
Avagacestat + Foretinib; first compound 2.53 µM
  relative viability: 0.905
Avagacestat + Foretinib; first compound 8 µM
  relative viability: 0.845
Avagacestat + Lapatinib; first compound 0.08 µM
  relative viability: 1.41
Avagacestat + Lapatinib; first compound 0.253 µM
  relative viability: 1.41
Avagacestat + Lapatinib; first compound 0.8 µM
  relative viability: 1.26
Avagacestat + Lapatinib; first compound 2.53 µM
  relative viability: 1.47
Avagacestat + Lapatinib; first compound 8 µM
  relative viability: 1.03
Avagacestat + Pictilisib; first compound 0.08 µM
  relative viability: 1.3
Avagacestat + Pictilisib; first compound 0.253 µM
  relative viability: 1.03
Avagacestat + Pictilisib; first compound 0.8 µM
  relative viability: 1.18
Avagacestat + Pictilisib; first compound 2.53 µM
  relative viability: 0.913
Avagacestat + Pictilisib; first compound 8 µM
  relative viability: 1.02
Avagacestat + Crizotinib; first compound 0.08 µM
  relative viability: 0.998
Avagacestat + Crizotinib; first compound 0.253 µM
  relative viability: 0.968
Avagacestat + Crizotinib; first compound 0.8 µM
  relative viability: 0.885
Avagacestat + Crizotinib; first compound 2.53 µM
  relative viability: 0.824
Avagacestat + Crizotinib; first compound 8 µM
  relative viability: 0.691
Avagacestat + Linsitinib; first compound 0.08 µM
  relative viability: 1.05
Avagacestat + Linsitinib; first compound 0.253 µM
  relative viability: 1.04
Avagacestat + Linsitinib; first compound 0.8 µM
  relative viability: 1.07
Avagacestat + Linsitinib; first compound 2.53 µM
  relative viability: 1.03
Avagacestat + Linsitinib; first compound 8 µM
  relative viability: 0.784
Avagacestat + Alpelisib; first compound 0.08 µM
  relative viability: 1.18
Avagacestat + Alpelisib; first compound 0.253 µM
  relative viability: 1.16
Avagacestat + Alpelisib; first compound 0.8 µM
  relative viability: 1.12
Avagacestat + Alpelisib; first compound 2.53 µM
  relative viability: 1.12
Avagacestat + Alpelisib; first compound 8 µM
  relative viability: 0.993
Avagacestat + Olaparib; first compound 0.08 µM
  relative viability: 0.7
Avagacestat + Olaparib; first compound 0.253 µM
  relative viability: 0.862
Avagacestat + Olaparib; first compound 0.8 µM
  relative viability: 0.722
Avagacestat + Olaparib; first compound 2.53 µM
  relative viability: 0.609
Avagacestat + Olaparib; first compound 8 µM
  relative viability: 0.585

## NCI-H1623
Avagacestat; 0.08 µM
  relative viability: 1.02
Avagacestat; 0.253 µM
  relative viability: 0.935
Avagacestat; 0.8 µM
  relative viability: 1.1
Avagacestat; 2.53 µM
  relative viability: 0.921
Avagacestat; 8 µM
  relative viability: 1
Avagacestat + Luminespib; first compound 0.08 µM
  relative viability: 0.491
Avagacestat + Luminespib; first compound 0.253 µM
  relative viability: 0.484
Avagacestat + Luminespib; first compound 0.8 µM
  relative viability: 0.913
Avagacestat + Luminespib; first compound 2.53 µM
  relative viability: 0.609
Avagacestat + Luminespib; first compound 8 µM
  relative viability: 0.475
Avagacestat + Foretinib; first compound 0.08 µM
  relative viability: 0.879
Avagacestat + Foretinib; first compound 0.253 µM
  relative viability: 0.95
Avagacestat + Foretinib; first compound 0.8 µM
  relative viability: 1.08
Avagacestat + Foretinib; first compound 2.53 µM
  relative viability: 0.813
Avagacestat + Foretinib; first compound 8 µM
  relative viability: 0.86
Avagacestat + OSI-027; first compound 0.08 µM
  relative viability: 0.437
Avagacestat + OSI-027; first compound 0.253 µM
  relative viability: 0.454
Avagacestat + OSI-027; first compound 0.8 µM
  relative viability: 0.508
Avagacestat + OSI-027; first compound 2.53 µM
  relative viability: 0.424
Avagacestat + OSI-027; first compound 8 µM
  relative viability: 0.47
Avagacestat + Tozasertib; first compound 0.08 µM
  relative viability: 0.448
Avagacestat + Tozasertib; first compound 0.253 µM
  relative viability: 0.446
Avagacestat + Tozasertib; first compound 0.8 µM
  relative viability: 0.456
Avagacestat + Tozasertib; first compound 2.53 µM
  relative viability: 0.46
Avagacestat + Tozasertib; first compound 8 µM
  relative viability: 0.445
Avagacestat + Dasatinib; first compound 0.08 µM
  relative viability: 0.525
Avagacestat + Dasatinib; first compound 0.253 µM
  relative viability: 0.567
Avagacestat + Dasatinib; first compound 0.8 µM
  relative viability: 0.575
Avagacestat + Dasatinib; first compound 2.53 µM
  relative viability: 0.511
Avagacestat + Dasatinib; first compound 8 µM
  relative viability: 0.577
Avagacestat + Phenformin; first compound 0.08 µM
  relative viability: 0.576
Avagacestat + Phenformin; first compound 0.253 µM
  relative viability: 0.603
Avagacestat + Phenformin; first compound 0.8 µM
  relative viability: 0.614
Avagacestat + Phenformin; first compound 2.53 µM
  relative viability: 0.577
Avagacestat + Phenformin; first compound 8 µM
  relative viability: 0.63
